Source: patent US8791273B2, “4R,5S-enantiomer of 2-(5-methyl-2-oxo-4-phenyl-pyrrolidin-1-yl)-acetamide with nootropic activity” (JSC Grindeks, priority 2009, dated 2014)
Marks after values point to notes of the source that are not given here.

Assays:
ICR male mice = assay: Passive avoidance test (learning and memory); type: in vivo; details: for Latent time (retention latency to cross into the dark compartment): intraperitoneally 46 μmol/kg 60 min before the training trial, retention test 24 hours later, cut-off 300 s, mean±S.E.M, n≧10
Experimental: Passive avoidance test was performed in a shuttle-box apparatus (Ugo Basile, Italy) with two communicating compartments of equal size (20×10×16 cm) and a stainless steel grid floor (bars spaced 0.7 cm apart). The right-hand compartment (shock compartment) was painted black to obtain a dark chamber. The left-hand compartment was painted white and illuminated by a bulb (100 W) installed on the top of plexiglass cover. These compartments were separated by a guillotine door (5×4 cm). On day 1 (training trial), mice were placed in the illuminated compartment and the door between the two compartments was opened 60 s later. When mice entered the dark compartment with all four feet, the door automatically closed and an inescapable electrical foot shock (0.1 mA; 3 s) was delivered through the grid floor. Latency to cross into the dark compartment (training latency) was automatically measured. The retention test was performed 24 hours later (day 2). Mice were placed into the light (safe) compartment, with access to the dark one (within 10 s) for a period of 300 s (cut-off time). The latency to cross into the dark compartment with all four feet was automatically measured (retention latency).
Effects of 2-(4R-phenyl-2-oxopyrrolidin-1-yl)acetamide), racemic 2-(5-methyl-2-oxo-4-phenyl-pyrrolidin-1-yl)-acetamide and 2-(5S-methyl-2-oxo-4R-phenyl-pyrrolidin-1-yl)-acetamide on retention of passive avoidance response (memory) in ICR male mice.
The compounds were administered intraperitoneally at the dose of 46 μmol/kg 60 min before the training trial (day 1). The saline control group was run concurrently with the drug-treated groups. The statistical analysis was performed by Student's t-test. Data represent mean±S.E.M *p<0.05, ^#p<0.05, ^$p<0.05 versus saline control group, 2-(4R-phenyl-2-oxopyrrolidin-1-yl)acetamide-treated group and racemic2-(5-methyl-2-oxo-4-phenyl-pyrrolidin-1-yl)-acetamide-treated group, respectively; n≧10

SMILES | Latent time (retention latency to cross into the dark compartment) (ICR male mice) | effect on memory in the passive avoidance task (ICR male mice; dose of 46 μmol/kg, Student's t-test) | melting point [°C]
CC1C(c2ccccc2)CC(=O)N1CC(N)=O (racemic) [2-(5-methyl-2-oxo-4-phenyl-pyrrolidin-1-yl)-acetamide racemic, 2-(5-methyl-2-oxo-4-phenyl-pyrrolidin-1-yl)-acetamide] | 74.2 ± 19.9 s | – | –
NC(=O)CN1C[C@@H](c2ccccc2)CC1=O [2-(4R-phenyl-2-oxopyrrolidin-1-yl)acetamide, reference compound] | 94.9 ± 27.6 s | – | –
C[C@H]1[C@@H](c2ccccc2)CC(=O)N1CC(N)=O [2-(5S-methyl-2-oxo-4R-phenyl-pyrrolidin-1-yl)-acetamide] | 170.6 ± 41.9* ^#$ s | statistically significant effect on memory | 169 to 171
